Among the data in patent US20230397607A1, “COMPOSITIONS COMPRISING MEFENTRIFLUCONAZOLE” (BASF AGRO B.V., priority 2020, published 2023) are Observed efficacy values, retold here.

Read-outs that look alike come from different tables or passages of the source.

Assay [1] concerns Qoi resistant isolate of Pyrenophora teres. Nature of the assay: Microtiter test: activity against net blotch Pyrenophora teres on barley (PYRNTE). The assay is classed as cell-based. Conditions: single active, 7 days after inoculation. The text has this:
2. Activity Against Net Blotch Pyrenophora teres on Barley in the Microtiter Test (PYRNTE)
These percentages were converted into efficacies.

In a further assay the test system is Septoria tritici. Conditions: SEPTTR, single active, 7 days after inoculation.

Description for Septoria tritici: Activity Against Leaf Blotch on Wheat Caused by Septoria tritici (SEPTTR)
The stock solutions were mixed according to the ratio, pipetted onto a micro titer plate (MTP) and diluted with water to the stated concentrations. A spore suspension of Septoria tritici in an aqueous biomalt or yeast-bactopeptone-glycerine or DOB solution was then added. The plates were placed in a water vapor-saturated chamber at a temperature of 18° C. Using an absorption photometer, the MTPs were measured at 405 nm 7 days after the inoculation.
An efficacy of 0 means that the growth level of the pathogens corresponds to that of the untreated control; an efficacy of 100 means that the pathogens were not growing.

Take `CC1CC(C)(C)c2cccc(NC(=O)c3cn(C)nc3C(F)F)c21` (stereo in doubt) [compound II, 3-(difluoromethyl)-N-[(3R)-2,3-dihydro-1,1,3-trimethyl-1H-inden-4-yl]-1-methyl-1H-pyrazole-4-carboxamide]: the Observed efficacy in assay [1] (0.004 ppm) stood at 0%; in assay [1] (0.016 ppm), 10%; in assay [1] (0.063 ppm), 37%; in the assay with Septoria tritici (0.016 ppm) it was 0%; with Septoria tritici (0.063 ppm), 17%.
For the molecule `CO/C=C(/C(=O)OC)c1ccccc1Oc1cc(Oc2ccccc2C#N)ncn1` [azoxystrobin (A.1.1), azoxystrobin], in the assay with Septoria tritici (0.004 ppm), the Observed efficacy came to 7%.
Consider `CC(O)(Cn1cncn1)c1ccc(Oc2ccc(Cl)cc2)cc1C(F)(F)F` (stereo not drawn) [compound I, 2-[4-(4-chlorophenoxy)-2-(trifluoromethyl)phenyl]-1-(1,2,4-triazol-1-yl) propan-2-ol], for which the Observed efficacy in assay [1] (0.00025 ppm) is on record as 0%; in assay [1] (0.001 ppm), 0%; in assay [1] (0.004 ppm) it was 0%; in the assay with Septoria tritici (0.001 ppm), 7%; in the assay with Septoria tritici (0.004 ppm) it was 69%.
In turn, `Cn1cc(C(=O)Nc2ccccc2-c2cc(F)c(F)c(F)c2)c(C(F)F)n1` [fluxapyroxad (A.3.9), fluxapyroxad] showed an Observed efficacy in assay [1] (0.004 ppm) of 0%.
In turn, `CC(C)c1ccc(Cl)cc1CN(C(=O)c1c(C(F)F)nn(C)c1F)C1CC1` [isoflucypram (A.3.26), isoflucypram] came in with an Observed efficacy in the assay on Septoria tritici (0.063 ppm) of 37%.
In assay [1] (0.063 ppm), `CON(C(=O)c1cn(C)nc1C(F)F)C(C)Cc1c(Cl)cc(Cl)cc1Cl` (stereo not drawn) [pydiflumetofen (A.3.17), pydiflumetofen] registered an Observed efficacy of 10%.
In the case of `COC(=O)N(OC)c1ccccc1COc1ccn(-c2ccc(Cl)cc2)n1` [pyraclostrobin (A.1.14), pyraclostrobin], the Observed efficacy in the assay with Septoria tritici (0.001 ppm) is on record as 9%.
